Measured values as given in PMC8327158, “PEGylated AdipoRon derivatives improve glucose and lipid metabolism under insulinopenic and high-fat diet conditions” (Journal of Lipid Research, 2021).

Test system: HFD-fed wild-type mice
Assay: Sphingolipid levels in tissues and serum of HFD-fed mice by mass spectrometry
Assay type: in vivo, mouse
Settings: for Cer 14:0 / Cer 16:0 / Cer 18:0 / Cer 18:1 / Cer 20:0 / Cer 22:0 / Cer 24:0 / Cer 24:1 / Cer 26:0 / Cer 26:1 / DeoxySphinganie / Deoxysphingosine / Hexosyl 14:0 / Hexosyl 16:0 / Hexosyl 18:0 / Hexosyl 20:0 / Hexosyl 22:0 / Hexosyl 24:0 / Hexosyl 24:1 / Lactosyl 16:0 / Lactosyl 18:0 / Lactosyl 22:0 / Lactosyl 24:1 / Lactosyl C24:0 / Sphingaine1P / Sphinganine / Sphingosine / Sphingosine1P / dCer 16:0 / dCer 18:0 / dCer 20:0 / dCer 22:0 / dCer 24:0 / dCer 24:1: 5 mg/kg twice a day 5 days, average ± SD
Procedure: Six-week-old wild-type male mice were fed HFD for 4 weeks or 7 months In total, 5 mg/Kg of PBS, Adiporon, AdipoRonPEG5, AdipoRonPEG6HTL were injected twice a day for 5 days. After 5 days of treatment, systemic test is performed, and serum (Before and after treatment), subcutaneous, epididymal, liver, heart samples were harvested for qPCR and sphingolipid analysis.
Flash-frozen tissue samples (~40 mg) in a borosilicate glass tube were quenched with 2.0 ml of organic extraction solvent (isopropanol: ethyl acetate, 15:85; v:v) and homogenized with a mechanical tissue disruptor. Immediately afterward, 20 μl of organic internal standard solution was added (Ceramide/Sphingoid Internal Standard Mixture II diluted 1:10 in ethanol). The mixture was vortexed for 20 s and sonicated in ultrasonic bath for 40 min at 40°C. The organic extract was allowed to reach room temperature, and 1.5 ml of HPLC water was added and a two-phase liquid-liquid extraction was performed. The upper phase was transferred to a new clean tube, and the lower aqueous phase containing the protein pellet was re-extracted with additional 2.0 ml of organic extraction solvent. The organic phases were combined and dried under nitrogen stream at 40°C. Dried extracts were stored at –80°C until analysis. For analysis of ceramides and sphingoid base species, the dried residues were reconstituted in 200 μl of methanol. Sphingomyelins required a sample dilution of 1:50 in methanol prior to analysis. Serum sphingolipids were extracted using a similar methodology requiring 25 μl of serum.
Liver, subcutaneous adipose tissue, pancreas, pancreatic islets were initially homogenized in 500 μl of cold PBS using an ultrasonic probe disruptor and keeping the sample on ice during sonication. In total, 50 μl of aqueous homogenate was aliquoted for protein determination. In total, 400 μl of the lysate was immediately quenched in 2.0 ml of organic extraction solvent.
In total, 5 μl of reconstituted samples was injected into an LC/MS/MS system for the analysis of ceramides and sphingoid bases, and 1 μl injection was required for the analysis of sphingomyelins. The system consisted of a Shimadzu LCMS-8050 triple-quadrupole mass spectrometer with the dual ion source operating in electrospray positive ionization mode. The mass spectrometer is coupled to a Shimadzu Nexera X2 UHPLC system equipped with three solvent delivery modules LC-30AD, three degassing units DGU-20A5R, an autosampler SIL-30ACMP, and a column oven CTO-20AC operating at 40°C (Shimadzu Scientific Instruments, Columbia, MD). Six sphingoid bases (d18:1 sphingosine, d18:1 sphingosine-1-phosphate, d18:1 deoxysphingosine, d18:0 sphinganine, d18:0 sphinganine-1-phosphate, d18:0 deoxysphinganine) and […] ceramide species and their metabolites (C16:0, C16:0 dihydroceramide, C16:0 glucosylceramide, C16:0 lactosylceramide, C16:0 sphingomyelin, C18:0, C18:0 dihydroceramide, C18:0 glucosylceramide, C18:0 sphingomyelin, C18:1, C20:0, C22:0, C22:0 glucosylceramide, C24:0, C24:0 dihydroceramide, C24:0 lactosylceramide, C24:0 sphingomyelin, C24:1, C24:1 dihydroceramide, C24:1 glucosylceramide, C24:1 sphingomyelin). Quantitative analysis of sphingolipids was achieved using selective reaction monitoring scan mode. Lipid separation was achieved by reverse phase LC on a 2.1 (i.d.) × 150 mm Ascentis Express C8, 2.7 micron (Supelco, Bellefonte, PA) column under gradient elution, using three different mobile phases: eluent A consisting of methanol/water/formic acid, 600/400/0.8, v/v/v with 5 mM ammonium formate, eluent B consisting of methanol/formic acid, 1,000/0.8, v/v with 5 mM ammonium formate, and eluent C consisting of CH3OH/CH2Cl2 350/650. The concentration of each metabolite was determined according to calibration curves using the peak-area ratio of analyte versus corresponding internal standard. Calibration curves were generated using serial dilutions of each target analyte.

O=C(COc1ccc(C(=O)c2ccccc2)cc1)NC1CCN(Cc2ccccc2)CC1 [AdipoRon]
scWAT ceramide levels (5 mg/kg): neither AdipoRon nor AdipoRonPEG5 had a noticeable impact
hepatic dihydroceramides (IP 5 mg/kg): nor did it lower dihydroceramide
sphingoid bases including S1P in the liver (IP 5 mg/kg): neither increased sphingoid bases
Cer 14:0 (liver): 11180.9 ± 7129.23 pg/mg
Cer 16:0 (liver): 15452.5 ± 14214.83 pg/mg
Cer 18:0 (liver): 47128.6 ± 39264.7 pg/mg
Cer 18:1 (liver): 0 pg/mg
Cer 20:0 (liver): 2021924.3 ± 1132557.52 pg/mg
Cer 22:0 (liver): 21221267.5 ± 1938950.14 pg/mg
Cer 24:0 (liver): 8844684.8 ± 1440139.38 pg/mg
Cer 24:1 (liver): 7621686.9 ± 1072827.16 pg/mg
Cer 26:0 (liver): 108319.5 ± 12837.73 pg/mg
Cer 26:1 (liver): 87632.7 ± 14143.63 pg/mg
DeoxySphinganie (liver): 16855.9 ± 5197.82 pg/mg
Deoxysphingosine (liver): 554.4 ± 112.17 pg/mg
Hexosyl 14:0 (liver): 6839.3 ± 2807.56 pg/mg
Hexosyl 16:0 (liver): 2057918.6 ± 682419.73 pg/mg
Hexosyl 18:0 (liver): 13702.3 ± 11183.27 pg/mg
Hexosyl 20:0 (liver): 139906.7 ± 74494.86 pg/mg
Hexosyl 22:0 (liver): 21992555.3 ± 7887275.74 pg/mg
Hexosyl 24:0 (liver): 9407290.2 ± 3691767.57 pg/mg
Hexosyl 24:1 (liver): 7250991.4 ± 2638110.11 pg/mg
Lactosyl 16:0 (liver): 401293.8 ± 92547.01 pg/mg
Lactosyl 18:0 (liver): 0.0 ± 0.0 pg/mg
Lactosyl 22:0 (liver): 604972.0 ± 219908.19 pg/mg
Lactosyl 24:1 (liver): 424590.5 ± 191122.31 pg/mg
Lactosyl C24:0 (liver): 317251.2 ± 183613.54 pg/mg
Sphingaine1P (liver): 55129.9 ± 14495.18 pg/mg
Sphinganine (liver): 299552.9 ± 52030.89 pg/mg
Sphingosine (liver): 1192462 ± 75216.97 pg/mg
Sphingosine1P (liver): 178631.8 ± 67607.36 pg/mg
dCer 16:0 (liver): 18233.3 ± 21176.21 pg/mg
dCer 18:0 (liver): 45901.3 ± 42922.13 pg/mg
dCer 20:0 (liver): 37867.7 ± 27772.5 pg/mg
dCer 22:0 (liver): 385034 ± 150652 pg/mg
dCer 24:0 (liver): 364847.1 ± 73663.91 pg/mg
dCer 24:1 (liver): 130075.8 ± 53105.06 pg/mg
Cer 14:0 (pancreas): 26.4 ± 4.51 pg/mg
Cer 16:0 (pancreas): 26.1 ± 10.18 pg/mg
Cer 18:0 (pancreas): 28.9 ± 6.11 pg/mg
Cer 18:1 (pancreas): 0 pg/mg
Cer 20:0 (pancreas): 1529.7 ± 140.3 pg/mg
Cer 22:0 (pancreas): 7541.1 ± 1118.82 pg/mg
Cer 24:0 (pancreas): 21064.5 ± 2932.0 pg/mg
Cer 24:1 (pancreas): 10791.6 ± 1783.65 pg/mg
Cer 26:0 (pancreas): 155.6 ± 36.08 pg/mg
Cer 26:1 (pancreas): 81.6 ± 16.04 pg/mg
DeoxySphinganie (pancreas): 2.1 ± 0.29 pg/mg
Deoxysphingosine (pancreas): 0.0 ± 0.0 pg/mg
Hexosyl 14:0 (pancreas): 3.8 ± 0.85 pg/mg
Hexosyl 16:0 (pancreas): 2561.5 ± 453.4 pg/mg
Hexosyl 18:0 (pancreas): 7.3 ± 3.14 pg/mg
Hexosyl 20:0 (pancreas): 112.7 ± 34.01 pg/mg
Hexosyl 22:0 (pancreas): 6774.3 ± 637.6 pg/mg
Hexosyl 24:0 (pancreas): 3358.5 ± 311.97 pg/mg
Hexosyl 24:1 (pancreas): 1427.8 ± 124.45 pg/mg
Lactosyl 16:0 (pancreas): 975.8 ± 208.21 pg/mg
Lactosyl 18:0 (pancreas): 52.8 ± 9.76 pg/mg
Lactosyl 22:0 (pancreas): 223.0 ± 50.43 pg/mg
Lactosyl 24:1 (pancreas): 310.1 ± 93.68 pg/mg
Lactosyl C24:0 (pancreas): 2057.1 ± 422.83 pg/mg
Sphingaine1P (pancreas): 17.5 ± 11.69 pg/mg
Sphinganine (pancreas): 25.9 ± 3.48 pg/mg
Sphingosine (pancreas): 217.3 ± 27.75 pg/mg
Sphingosine1P (pancreas): 90.3 ± 22.26 pg/mg
dCer 16:0 (pancreas): 3.8 ± 1.52 pg/mg
dCer 18:0 (pancreas): 0.0 ± 0.0 pg/mg
dCer 20:0 (pancreas): 2.0 ± 0.18 pg/mg
dCer 22:0 (pancreas): 24.6 ± 9.85 pg/mg
dCer 24:0 (pancreas): 206.7 ± 49.68 pg/mg
dCer 24:1 (pancreas): 24.0 ± 10.28 pg/mg
Cer 14:0 (scWAT): 41670.5 ± 9888.98 pg/mg
Cer 16:0 (scWAT): 200569.4 ± 60832.18 pg/mg
Cer 18:0 (scWAT): 90968.7 ± 40221.97 pg/mg
Cer 18:1 (scWAT): 24648 ± 8680 pg/mg
Cer 20:0 (scWAT): 189778.3 ± 38166.38 pg/mg
Cer 22:0 (scWAT): 835762.6 ± 112294.65 pg/mg
Cer 24:0 (scWAT): 2316061.3 ± 1012651.99 pg/mg
Cer 24:1 (scWAT): 2616280.7 ± 714833.34 pg/mg
Cer 26:0 (scWAT): 25284.4 ± 8047.31 pg/mg
Cer 26:1 (scWAT): 27852.3 ± 8212.8 pg/mg
DeoxySphinganie (scWAT): 1039.3 ± 1085.07 pg/mg
Deoxysphingosine (scWAT): 0.0 ± 0.0 pg/mg
Hexosyl 14:0 (scWAT): 3863.9 ± 2313.65 pg/mg
Hexosyl 16:0 (scWAT): 1558779.8 ± 419292.53 pg/mg
Hexosyl 18:0 (scWAT): 879349.9 ± 318302.5 pg/mg
